Laboratory results from patent US10792289B2 (Horizon Orphan LLC, priority 2009, dated 2020).
Where two headings read alike, the source gives them in different places.

System: P. aeruginosa isolates
Assay: Phase 2 study: MIC of P. aeruginosa isolates to levofloxacin
Format: cell-based
Conditions: Pseudomonas aeruginosa
Experimental: Efficacy was evaluated by microbiologic assessment of sputum samples, time to need for anti-pseudomonal antimicrobials, the Cystic Fibrosis Questionaire-Revised (CFQ-R), and pulmonary function tests. […] Pair-wise comparisons between all the treatment arms were conducted as secondary analyses.

C[C@H]1COc2c(N3CCN(C)CC3)c(F)cc3c(=O)c(C(=O)O)cn1c23 [Levofloxacin, levofloxacin]
MIC90 (672 h, MITT, combined 240 mg QD and BID, Day 28, read-out: Highest MIC, MIC90): 32 µg/mL | MIC50 (672 h, MITT, combined 240 mg QD and BID, Day 28, read-out: MIC50 (all organisms)): 4 µg/mL | MIC90 (672 h, MITT, combined 240 mg QD and BID, Day 28, read-out: MIC90 (all organisms)): 16 µg/mL | MIC50 (672 h, Table 14, EE, 120 mg QD, Day 28, read-out: MIC50 (all organisms)): 8 µg/mL | MIC90 (672 h, Table 14, EE, 120 mg QD, Day 28, read-out: MIC90 (all organisms)): 32 µg/mL | MIC50 (672 h, Table 14, EE, 240 mg BID, Day 28, read-out: MIC50 (all organisms)): 8 µg/mL | MIC90 (672 h, Table 14, EE, 240 mg BID, Day 28, read-out: MIC90 (all organisms)): 32 µg/mL | MIC50 (672 h, Table 14, EE, 240 mg QD, Day 28, read-out: MIC50 (all organisms)): 8 µg/mL | MIC90 (672 h, Table 14, EE, 240 mg QD, Day 28, read-out: MIC90 (all organisms)): 16 µg/mL | MIC50 (672 h, Table 14, EE, combined 240 mg QD and BID, Day 28, read-out: MIC50 (all organisms)): 8 µg/mL | MIC90 (672 h, Table 14, EE, combined 240 mg QD and BID, Day 28, read-out: MIC90 (all organisms)): 32 µg/mL | MIC (672 h, read-out: Highest MIC to levofloxacin, mean (SD), MITT, 120 mg QD, Day 28): 12.7 µg/mL | MIC (672 h, read-out: Highest MIC to levofloxacin, mean (SD), MITT, 240 mg BID, Day 28): 17.9 µg/mL | MIC (672 h, read-out: Highest MIC to levofloxacin, mean (SD), MITT, 240 mg QD, Day 28): 9.17 µg/mL | MIC (672 h, read-out: Highest MIC to levofloxacin, mean (SD), MITT, combined 240 mg QD and BID, Day 28): 13.5 µg/mL | MIC (672 h, read-out: MIC to levofloxacin (all organisms), mean (SD), EE, 120 mg QD, Day 28): 8.9 µg/mL | MIC (672 h, read-out: MIC to levofloxacin (all organisms), mean (SD), EE, 240 mg BID, Day 28): 10.1 µg/mL | MIC (672 h, read-out: MIC to levofloxacin (all organisms), mean (SD), EE, 240 mg QD, Day 28): 6 µg/mL | MIC (672 h, read-out: MIC to levofloxacin (all organisms), mean (SD), EE, combined 240 mg QD and BID, Day 28): 8 µg/mL | MIC (672 h, read-out: MIC to levofloxacin (all organisms), mean (SD), MITT, 120 mg QD, Day 28): 8.8 µg/mL | MIC (672 h, read-out: MIC to levofloxacin (all organisms), mean (SD), MITT, 240 mg BID, Day 28): 9.9 µg/mL | MIC (672 h, read-out: MIC to levofloxacin (all organisms), mean (SD), MITT, 240 mg QD, Day 28): 5.9 µg/mL | MIC (672 h, read-out: MIC to levofloxacin (all organisms), mean (SD), MITT, combined 240 mg QD and BID, Day 28): 7.9 µg/mL | MIC (672 h, read-out: MIC to levofloxacin (all organisms), mean (SD), Table 14, EE, 120 mg QD, Day 28): 12.9 µg/mL | MIC (672 h, read-out: MIC to levofloxacin (all organisms), mean (SD), Table 14, EE, 240 mg BID, Day 28): 18 µg/mL | MIC (672 h, read-out: MIC to levofloxacin (all organisms), mean (SD), Table 14, EE, 240 mg QD, Day 28): 9.42 µg/mL | MIC (672 h, read-out: MIC to levofloxacin (all organisms), mean (SD), Table 14, EE, combined 240 mg QD and BID, Day 28): 13.6 µg/mL | MIC50 (EE and MITT, 120 mg QD, baseline, read-out: MIC50 for P. aeruginosa isolates): 8 µg/mL | MIC90 (EE and MITT, 120 mg QD, baseline, read-out: MIC90 for P. aeruginosa isolates): 32 µg/mL | MIC50 (EE and MITT, 240 mg BID, baseline, read-out: MIC50 for P. aeruginosa isolates): 6 µg/mL | MIC90 (EE and MITT, 240 mg BID, baseline, read-out: MIC90 for P. aeruginosa isolates): 32 µg/mL | MIC50 (EE and MITT, 240 mg QD, baseline, read-out: MIC50 for P. aeruginosa isolates): 4 µg/mL | MIC90 (EE and MITT, 240 mg QD, baseline, read-out: MIC90 for P. aeruginosa isolates): 32 µg/mL | MIC (all patients, baseline (n=592 isolates), read-out: Median baseline MIC of all isolates): 4 µg/mL | MIC90 (read-out: Baseline MIC90 of all isolates): 16 µg/mL | MIC (read-out: Highest MIC to levofloxacin, mean (SD), MITT, 120 mg QD, Day 1): 14.3 µg/mL | MIC (read-out: Highest MIC to levofloxacin, mean (SD), MITT, 240 mg BID, Day 1): 11.4 µg/mL | MIC (read-out: Highest MIC to levofloxacin, mean (SD), MITT, 240 mg QD, Day 1): 9.06 µg/mL | MIC (read-out: Highest MIC to levofloxacin, mean (SD), MITT, combined 240 mg QD and BID, Day 1): 10.2 µg/mL | MIC (read-out: MIC to levofloxacin (all organisms), mean (SD), EE, 120 mg QD, Day 1): 11.5 µg/mL | MIC (read-out: MIC to levofloxacin (all organisms), mean (SD), EE, 240 mg BID, Day 1): 6.8 µg/mL | MIC (read-out: MIC to levofloxacin (all organisms), mean (SD), EE, 240 mg QD, Day 1): 6.3 µg/mL | MIC (read-out: MIC to levofloxacin (all organisms), mean (SD), EE, combined 240 mg QD and BID, Day 1): 6.5 µg/mL | MIC (read-out: MIC to levofloxacin (all organisms), mean (SD), MITT, 120 mg QD, Day 1): 11 µg/mL | MIC (read-out: MIC to levofloxacin (all organisms), mean (SD), MITT, 240 mg BID, Day 1): 6.8 µg/mL | MIC (read-out: MIC to levofloxacin (all organisms), mean (SD), MITT, 240 mg QD, Day 1): 6.1 µg/mL | MIC (read-out: MIC to levofloxacin (all organisms), mean (SD), MITT, combined 240 mg QD and BID, Day 1): 6.4 µg/mL | MIC (read-out: MIC to levofloxacin (all organisms), mean (SD), Table 14, EE, 120 mg QD, Day 1): 15 µg/mL | MIC (read-out: MIC to levofloxacin (all organisms), mean (SD), Table 14, EE, 240 mg BID, Day 1): 11.6 µg/mL | MIC (read-out: MIC to levofloxacin (all organisms), mean (SD), Table 14, EE, 240 mg QD, Day 1): 9.35 µg/mL | MIC (read-out: MIC to levofloxacin (all organisms), mean (SD), Table 14, EE, combined 240 mg QD and BID, Day 1): 10.5 µg/mL
